Residues, ends and D or L forms follow the SMILES beside them. *: point of attachment. DOTA = O=C(O)CN1CCN(CC(=O)O)CCN(CC(=O)*)CCN(CC(=O)O)CC1
How the values were obtained:
[1] = Biodistribution of 111In-DOTA-labelled hLF variants after intravenous injection; format: in vivo, C57BI/6 mice; details: i.v., 4 hours
Method: Female and male 10-12-weeks-old C57BI/6 mice (Charles River) were injected via the tail vein with 50 μl of 200 μM 111 In-DOTA-labelled hLF peptides. […] Organs were collected 4 hours after injection, and radioactivity was measured in a gamma-counter. The percentage injected dose per gram of tissue (% ID/gram) was determined for each tissue and ratios between organs were calculated.

[2] = tested on: HeLa cells; test: Uptake of fluorescein-labelled peptides by HeLa cells (flow cytometry); format: cell-based, human; details: FIG. 1B
Method: (§1) Conditionally immortalized mouse glomerular endothelial cells (mGEnC) were cultured as previously described (Rops et al. Kidney Int. 2004; 66 (6): 2193-201). HeLa cells were employed as a frequently used model cell line and were cultured in DMEM/F12 medium containing 10% fetal calf serum (FCS). For studying uptake, cells were incubated in their respective medium with 10% FCS containing fluorescein-labelled peptides at the indicated concentrations for 20 minutes at 37 °C. In some cases, cells were activated for 16 hours with 10 ng/ml mouse TNFα (Sigma), or co-incubated with Alexa Fluor 633-labeled transferrin (Invitrogen Molecular Probes). Subsequently, cells were washed with PBS and analysed using confocal laser-scanning microscopy on a TCS SP5 confocal microscope (Leica Microsystems), or detached by trypsin/EDTA and analysed on a FACSCalibur Flow cytometer (BD Biosciences) by measuring 20,000 cells.

[3] = tested on: hGEnC; test: Uptake in multiple cell lines (Table 2): hGEnC; format: cell-based; details: fluorescein-labeled peptide, confocal microscopy, hGEnC (human)
[4] = tested on: mGEnC treated with TNFα; test: Uptake by mGEnC after activation with TNFα; format: cell-based; details: 10 ng/ml mouse TNFα 16 hours
Method: as §1
(§2) Conditionally immortalized mouse glomerular endothelial cells (mGEnC) were cultured as previously described (Rops et al. Kidney Int. 2004; 66 (6): 2193-201). Cells were incubated in their respective medium with 10% FCS containing fluorescein-labelled peptides at 5 μM for 20 minutes at 37 °C. In some cases, cells were activated for 16 hours with 10 ng/ml mouse TNFα (Sigma), or co-incubated with 100 μg/ml Alexa Fluor 633-labeled transferrin (Invitrogen Molecular Probes). Pre-treatment with ITLN-1 or control siPool siRNA (siTools Biotech) was performed according to the manufacturer's protocol. Subsequently, cells were detached with trypsin/EDTA and analysed by flow cytometry on a FACSCalibur Flow cytometer (BD Biosciences). For immunostaining, cells or 5-μm cryosections of mouse kidney were fixed for 10 minutes with 4% paraformaldehyde, and in the indicated cases permeabilized with 0.3% Triton X-100 in PBS. Subsequently, cells and cryosections were stained for 1 hour with anti-intelectin-1 (R&D Systems) or anti-LRP-1 (Abcam) antibodies, and after washing incubated for 1 hour with the appropriate Alexa Fluor-labelled secondary antibody (Invitrogen Molecular Probes). Cells and cryosections were analyzed by confocal laser-Scanning microscopy was performed using a TCS SP5 confocal microscope (Leica Microsystems).

[5] = tested on: HUVEC; test: Uptake in multiple cell lines (Table 2): HUVEC; format: cell-based; details: fluorescein-labeled peptide, confocal microscopy, HUVEC (human)
[6] = tested on: EOMA; test: Uptake in multiple cell lines (Table 2): EOMA; format: cell-based; details: fluorescein-labeled peptide, confocal microscopy, EOMA (mouse)
[7] = tested on: HeLa; test: Uptake in multiple cell lines (Table 2): HeLa; format: cell-based; details: fluorescein-labeled peptide, confocal microscopy, HeLa (human)
Method: as §1
as §2, with “Subsequently, cells and cryosections were stained for 1 hour with anti-intelectin-1 (R&D Systems) or anti-LRP-1 (Abcam) antibodies, and after washing incubated for 1 hour with the appropriate Alexa Fluor-labelled secondary antibody (Invitrogen Molecular Probes).” left out

[8] = tested on: Podocytes; test: Uptake in multiple cell lines (Table 2): Podocytes; format: cell-based; details: fluorescein-labeled peptide, confocal microscopy, Podocytes (mouse)
Method: as §1
as §2, with “Subsequently, cells and cryosections were stained for 1 hour with anti-intelectin-1 (R&D Systems) or anti-LRP-1 (Abcam) antibodies, and after washing incubated for 1 hour with the appropriate Alexa Fluor-labelled secondary antibody (Invitrogen Molecular Probes).” left out

[9] = tested on: mGEnC; test: Uptake in multiple cell lines (Table 2): mGEnC; format: cell-based; details: fluorescein-labeled peptide, confocal microscopy, mGEnC (mouse)
Method: as §1
as §2, with “Subsequently, cells and cryosections were stained for 1 hour with anti-intelectin-1 (R&D Systems) or anti-LRP-1 (Abcam) antibodies, and after washing incubated for 1 hour with the appropriate Alexa Fluor-labelled secondary antibody (Invitrogen Molecular Probes).” left out

[10] = target: T1, ITLN-1 (Mus musculus, UniProt O88310); test: Uptake by mGEnC after downregulation of ITLN-1 with siRNA; format: cell-based; details: peptides at 5 μM, FIG. 2E
T1 construct: ITLN-1 siRNA versus control siRNA
Method: as §2

[11] = Biodistribution of Cy5.5-hLF in LPS-induced inflammation mouse model; format: in vivo, C57BI/6 mice; details: for organ with highest signal: LPS-treated and non-treated mice; for localization in the glomeruli: kidney of LPS-treated mice
Method: At the start, 8- to 10-week-old C57BI/6 mice (Charles River) received an intraperitoneal injection with either 100 μl of 2 mg/kg LPS in 5% glucose solution, or only 5% glucose solution. After 24 hours, mice were injected with 50 μl of 200 μM Cy5.5-labelled peptide. Assuming a blood volume of 1.2 ml this would theoretically result in a concentration of ~8.5 μM in the circulation. After 4 hours, organs were perfused with phosphate buffer, followed by 4% PFA. Organs were removed and peptide distribution was analysed using the In Vivo Imaging System (IVIS; Perkin Elmer). Organs were then fixed by overnight incubation in 4% PFA, followed by overnight incubation in 30% sucrose. Subsequently, organs were frozen for analysis by confocal laser-Scanning microscopy using a TCS SP5 confocal microscope (Leica Microsystems). Glomerular and tubular regions were selected in microscopical pictures from which the mean fluorescence intensity was determined by ImageJ software.

[12] = tested on: heparan sulphate on mGEnC; test: Peptide uptake by mGEnC after removal of heparan sulphate (heparinases); format: cell-based, mouse; details: 5 μM, FIG. 1D
Method: (D) Digestion of heparan sulphate from the cell surface has a limited effect on the uptake of lactoferrin-derived peptides (5 μM). Percentage of uptake for heparan sulphate-cleaved compared to undigested cells is shown.
as §1
In order to further substantiate that uptake of hLF occurred by a mechanism different of the one typically observed for CPPs, we addressed the role of heparan sulphate proteoglycans (HSPGs).

[13] = tested on: mouse glomerular endothelial cells (mGEnC); test: Uptake of fluorescein-labelled peptides by mGEnC (flow cytometry); format: cell-based; details: different concentrations, 20 minutes at 37 °C, FIG. 1A
Method: as §1

[14] = Biodistribution of full-length lactoferrin, lactoferricin and hLF-6 in LPS-challenged mice (IVIS); format: in vivo; details: fluorescent label, i.v., 2 h
Method: Lactoferrin and lactoferricin are cloned in an expression plasmid containing the C-terminal Sortase-sequence protein-LPETG-HHHHHH. LPETGHHHHHH is SEQ ID NO: 98. Next, the protein is expressed overnight in E. coli and purified from sonicated bacterial cell lysates by Ni-NTA beads using 400 mM imidazole to elute the proteins. After overnight dialysis, full-length lactoferrin and hLF-6 are labelled by means of a Sortase exchange reaction on the C-terminus with a fluorescent dye (Alexa647 or Cy5.5) for 2 h at 4 °C using a fluorescently labelled donor peptide (formula:biotin-GSSG-LPETG-label or biotin-GSSG-LPETG-PEG40k-label) as substrate GSSGLPETG is SEQ ID NO: 99. Excess donor peptide is removed by means of streptavidin binding of the biotin tag on the N-terminus of the donor peptide. Next, the purified labelled protein/peptide is injected into LPS-challenged mice via intravenous injection in the tail vein. Mice are sacrificed after 2 h, and organs harvested for imaging by IVIS. Biodistribution is quantified for each organ, and relative distribution is shown.

T1 sequence (O88310 19-298): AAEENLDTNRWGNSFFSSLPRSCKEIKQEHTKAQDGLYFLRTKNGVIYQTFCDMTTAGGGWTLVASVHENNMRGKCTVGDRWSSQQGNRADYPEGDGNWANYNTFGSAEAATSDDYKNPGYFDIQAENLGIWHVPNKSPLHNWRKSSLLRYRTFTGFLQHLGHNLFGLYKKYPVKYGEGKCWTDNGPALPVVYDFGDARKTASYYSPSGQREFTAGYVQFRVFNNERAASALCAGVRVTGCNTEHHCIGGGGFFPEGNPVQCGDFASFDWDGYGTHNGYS

| Compound | uptake in HeLa cells [2] | Uptake (Table 2) [3] | Uptake (Table 2) [5] | Uptake (Table 2) [6] | Uptake (Table 2) [7] | Uptake (Table 2) [8] | Uptake (Table 2) [9] | uptake after ITLN-1 siRNA compared to control siRNA [10] | effect of TNFα treatment on uptake [4] | further results |
| --- | --- | --- | --- | --- | --- | --- | --- | --- | --- | --- |
| CC(C)[C@H](NC(=O)[C@H](CCCCN)NC(=O)[C@H](CCCNC(=N)N)NC(=O)CN1CCN(CC(=O)O)CCN(CC(=O)O)CCN(CC(=O)O)CC1)C(=O)N[C@@H](CCCNC(=N)N)C(=O)NCC(=O)N1CCC[C@H]1C(=O)N1CCC[C@H]1C(N)=O [^111In-DOTA-hLF-7, ^111In-DOTA-RKVRGPP-NH2, metal not drawn] ({DOTA}-RKVRGPP-NH2) |  |  |  |  |  |  |  |  |  | kidney/liver ratio (in words) [1]: still increased; localization to the kidney ([1]; FIG. 5): reduced distribution to the kidney; localization to the liver and spleen ([1]; FIG. 5): reduced distribution to the liver and spleen |
| CC[C@H](C)[C@H](NC(=O)[C@H](CCCCN)NC(=O)[C@@H](NC(=O)[C@H](CCC(N)=O)NC(=O)[C@@H](N)CCCNC(=N)N)[C@@H](C)CC)C(=O)N[C@@H](Cc1c[nH]c2ccccc12)C(=O)N[C@@H](Cc1ccccc1)C(=O)N[C@@H](CCC(N)=O)C(=O)N[C@@H](CC(N)=O)C(=O)N[C@@H](CCCNC(=N)N)C(=O)N[C@@H](CCCNC(=N)N)C(=O)N[C@@H](CCSC)C(=O)N[C@@H](CCCCN)C(=O)N[C@@H](Cc1c[nH]c2ccccc12)C(=O)N[C@@H](CCCCN)C(=O)N[C@@H](CCCCN)C(N)=O [penetratin, reference compound] | show uptake | Low | High | Low | High | High | Low | not affected |  | uptake after TNFα treatment by confocal microscopy [4]: barely detectable; increase of uptake after TNFα treatment ([4]; 5 μM, FIG. 1E): 50-100% |
| Cy5.5-KCFQWQRNMRKVRGPPVSCIKR-NH2 ({Cy5.5}-KCFQWQRNMRKVRGPPVSCIKR-NH2; cysteine pairing not given here) [Cy5.5-hLF] |  |  |  |  |  |  |  |  |  | organ with highest signal ([11]; IVIS): predominant distribution in kidney and liver; organ with highest signal ([11]; IVIS, listed as Cy5.5-labeled hLF): highest signal for the peptide was present in the kidneys, followed by the liver; biodistribution to the kidney with LPS-induced inflammation ([11]; IVIS, i.v., 4 hours, LPS-treated mice, FIG. 4A): increase biodistribution to the kidney; urinary excretion (urine colour) ([11]; all injected mice): Urine was coloured by excreted Cy5.5-labelled peptide in all mice; fluorescence in liver, lung and spleen ([11]; confocal microscopy, FIG. 4B): much lower fluorescence; localization to the tubules, LPS-treated versus untreated ([11]; confocal microscopy, FIG. 4B): similar; localization in the glomeruli ([11]; confocal microscopy, FIG. 4B): in glomeruli only in LPS-treated mice; localization in the glomeruli ([11]; confocal microscopy, FIG. 4B, listed as Cy5.5-labeled hLF): clearly pronounced; detection in the liver ([11]; histology of cryosections): singular cells appeared weakly positive; detection in the spleen ([11]; histology of cryosections): could hardly be detected |
| KCLRWQNEMRKVGGPPLSCIKR [mLF, mouse variant of hLF] | only a minimal uptake and not | High | High | High | Low | High | High | reduced uptake | increased uptake | decrease in uptake after removal of heparan sulphate [12]: ~ 20%; uptake in mGEnC [13]: uptake occurred similarly to hLF |
| RKVRGPPVSCIKRDS [hLF-6] |  |  |  |  |  |  |  |  |  | accumulation in the kidney compared to lactoferrin and lactoferricin [14]: significantly greater accumulation in the kidney |
| transferrin: Alexa Fluor 633-labeled transferrin, marker for clathrin-mediated endocytosis [reference compound] |  |  |  |  |  |  |  | not affected | not significantly affected |  |

From US20260355328A1, “A complex comprising a cargo and a targeting moiety binding intelectin-1” (Stichting Radboud universitair medisch centrum, priority 2022, published 2026)
